Experimental data published in patent US10086001B2, “Composition for the treatment of cystic fibrosis” (SciPharm SàRL, priority 2009, dated 2018).

What was measured:
IB3-1 cells = test: Accumulation of [3H]cAMP in IB3-1 cells; type: cell-based, human; details: for accumulation of cAMP: bronchoepithelial IB3-1 cells
Description: IB3-1 cells were plated on 6 well-plates (0.2*10^6 cells/well) in complete growth medium (LHC-8+5% FCS). The following day, the adenine nucleotide pool was metabolically labelled by incubation with [3H]adenine (1 μCi/well) in Dulbecco's Modified Eagle Medium (DMEM) containing adenosine deaminase (1 unit/ml) for 4 h. Cyclc AMP formation was stimulated by 20 μM forskolin or the PGI2-analogue treprostinil (Remodulin®). The assay was performed in triplicates. The formation of [^3H]cAMP was determined by sequential chromatography on Dowex 50WX-4 and neutral alumina columns followed by liquid scintillation counting of the eluate.

[1] = system: human GFP-tagged wild type CFTR; test: Whole cell patch clamp, activation of Cl-current in IB3-1 cells transiently expressing GFP-tagged wild type CFTR; type: cell-based
Description: The whole cell patch clamp technique was used for current recordings performed at 22±1.5° C. using an Axoclamp 200B patch clamp amplifier (Axon Instruments). Pipettes had resistances between 1 and 2 MΩ when filled with the recording pipette solution (composition: 110 mM CsCl, 5 mM EGTA, 2 mM MgCl2, 1 mM K2.ATP, 10 mM Hepes, pH adjusted to 7.2 with CsOH). Voltage-clamp protocols and data acquisition were performed with pclamp 6.0 software (Axon Instruments). Data were low-pass filtered at 2 kHz (−3 dB) and digitized at 10-20 kHz. Cells were continuously superfused with external solution (composition: 145 mM NaCl, 4.5 mM KCl, 2 mM CaCl2, 1 mM MgCl2, 5 mM glucose, 10 mM Hepes, pH adjusted to 7.4 with NaOH). When indicated, the external solution contained Treprostinil (10 μM) or forskolin (5 μM), switching between solutions was achieved by electronically controlled pressure valves.
I3B-1 cells were grown on dishes (Nunc, 3.5 cm diameter) covered with fibronectin (10 μg/mL) rat collagen 1 (30 μg/mL) and BSA 10 μg/mL) in LHC-8 medium (Gibco) containing 5% fetal calf serum (FCS). Cells were transiently transfected with a plasmid driving the expression of human GFP-tagged wild type CFTR by using Lipofectamine Plus® (Invitrogen) according to the instructions of the manufacturer.
Representative current amplitudes recorded in the whole cell patch clamp configuration at +60 mV. A transiently transfected I3B-1 cell expressing GFP-tagged wild type CFTR was selected under fluorescent light and clamped to a holding potential at −40 mV. Depolarization was induced by a voltage step to +60 mV for 50 ms and the current amplitude was recorded. Wash-in of Treprostinil (10 μM final concentration, TP) was initiated at the time point 50 s and terminated at 125 s. Forskolin was washed in at 275 s and was removed at 375 s.

EC50 (IB3-1 cells; Homo sapiens, IB3-1 cells, [3H]adenine labelling, FIG. 1, read-out: Half-maximum stimulation of cAMP accumulation)	SMILES	accumulation of cAMP (IB3-1 cells)	activation of the current induced by a depolarization from −40 mV holding potential to +60 mV ([1]; 10 μM Treprostinil, IB3-1 cell expressing CFTR-wt, FIG. 2)	time for current to decay to basal after washout ([1]; 10 μM Treprostinil, whole cell patch clamp at +60 mV)	delay of response (maximum effect after wash-in, hysteresis in turn-off) ([1]; Treprostinil 10 μM or forskolin 5 μM, whole cell patch clamp)
–	O=C1CN2Cc3c(ccc(Cl)c3Cl)N=C2N1 [Anagrelide]	did not induce any accumulation cAMP	–	–	–
300 to 1000 nM	CCCCC[C@H](O)CC[C@@H]1[C@H]2Cc3cccc(OCC(=O)[O-])c3C[C@H]2C[C@H]1O.[Na+] [Treprostinil, (1R,2R,3aS,9aS)-[[2,3,3a,4,9,9a-hexahydro-2-hydroxy-1-[(3S)-3-hydroxyoctyl]-1H-benz[f]inden-5-yl]oxy]acetic acid monosodium salt]	concentration-dependent accumulation of cAMP	robust activation of the current	~100 s	only observed several s after wash-in
